Reference: ChEMBL document CHEMBL1909294, “Translating clinical findings into knowledge in drug safety evaluation--drug induced liver injury prediction system (DILIps)” (PLoS Comput Biol, 2011)

Key:
Hepatotoxicity [1] = system: Hepatotoxicity;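 as to HepSE bilirubinemia: bilirubinemia hepatic side effect score drawn from the DILIps training data, a prediction system for drug-induced liver injury; call rule not given here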;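 as to HepSE cholecystitis: Cholecystitis-related hepatic side effect score drawn from the DILIps (drug-induced liver injury prediction) training data set; call rule not given here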;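 as to HepSE cholelithiasis: hepatic side effect score for cholelithiasis, drawn from the DILIps training data for predicting drug-induced liver injury; call rule not given here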;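 as to HepSE cirrhosis: cirrhosis hepatic side effect score taken from the DILIps (drug-induced liver injury prediction) training set; call rule not given here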;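 as to HepSE elevated liver function tests: hepatic side effect score for raised liver function tests, as recorded in the DILIps training set used for predicting drug-induced liver injury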; as to HepSE hepatic failure: call rule not given here;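 as to HepSE hepatomegaly: hepatic side effect score for hepatomegaly, taken from the training set of the DILIps drug-induced liver injury prediction system; call rule not given here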
Hepatotoxicity [2] = system: Hepatotoxicity; remark: listed apart in the source;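 as to HepSE bilirubinemia: bilirubinemia hepatic side effect score drawn from the DILIps training data, a prediction system for drug-induced liver injury; call rule not given here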;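 as to HepSE cholecystitis: Cholecystitis-related hepatic side effect score drawn from the DILIps (drug-induced liver injury prediction) training data set; call rule not given here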;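 as to HepSE cholelithiasis: hepatic side effect score for cholelithiasis, drawn from the DILIps training data for predicting drug-induced liver injury; call rule not given here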;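 as to HepSE cirrhosis: cirrhosis hepatic side effect score taken from the DILIps (drug-induced liver injury prediction) training set; call rule not given here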;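 as to HepSE elevated liver function tests: hepatic side effect score for raised liver function tests, as recorded in the DILIps training set used for predicting drug-induced liver injury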; as to HepSE hepatic failure: call rule not given here
Hepatotoxicity [3] = system: Hepatotoxicity; remark: listed apart in the source;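 as to HepSE bilirubinemia: bilirubinemia hepatic side effect score drawn from the DILIps training data, a prediction system for drug-induced liver injury; call rule not given here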;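 as to HepSE cholecystitis: Cholecystitis-related hepatic side effect score drawn from the DILIps (drug-induced liver injury prediction) training data set; call rule not given here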;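 as to HepSE cholelithiasis: hepatic side effect score for cholelithiasis, drawn from the DILIps training data for predicting drug-induced liver injury; call rule not given here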;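 as to HepSE cirrhosis: cirrhosis hepatic side effect score taken from the DILIps (drug-induced liver injury prediction) training set; call rule not given here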;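 as to HepSE elevated liver function tests: hepatic side effect score for raised liver function tests, as recorded in the DILIps training set used for predicting drug-induced liver injury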; as to HepSE hepatic failure: call rule not given here
Hepatotoxicity [4] = system: Hepatotoxicity; remark: listed apart in the source;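 as to HepSE bilirubinemia: bilirubinemia hepatic side effect score drawn from the DILIps training data, a prediction system for drug-induced liver injury; call rule not given here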;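 as to HepSE cholecystitis: Cholecystitis-related hepatic side effect score drawn from the DILIps (drug-induced liver injury prediction) training data set; call rule not given here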;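 as to HepSE cholelithiasis: hepatic side effect score for cholelithiasis, drawn from the DILIps training data for predicting drug-induced liver injury; call rule not given here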;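 as to HepSE cirrhosis: cirrhosis hepatic side effect score taken from the DILIps (drug-induced liver injury prediction) training set; call rule not given here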;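 as to HepSE elevated liver function tests: hepatic side effect score for raised liver function tests, as recorded in the DILIps training set used for predicting drug-induced liver injury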; as to HepSE hepatic failure: call rule not given here
Hepatotoxicity [5] = system: Hepatotoxicity; remark: listed apart in the source; as to HepSE hepatic failure: call rule not given here
Hepatotoxicity [6] = system: Hepatotoxicity; remark: listed apart in the source; as to HepSE hepatic failure: call rule not given here
Hepatotoxicity [7] = system: Hepatotoxicity; remark: listed apart in the source
Hepatotoxicity [8] = system: Hepatotoxicity; remark: listed apart in the source
Hepatotoxicity [9] = system: Hepatotoxicity; remark: listed apart in the source
Hepatotoxicity [10] = system: Hepatotoxicity; remark: listed apart in the source
Hepatotoxicity [11] = system: Hepatotoxicity; remark: listed apart in the source
Hepatotoxicity [12] = system: Hepatotoxicity; remark: listed apart in the source
Hepatotoxicity [13] = system: Hepatotoxicity; remark: listed apart in the source
Hepatotoxicity [14] = system: Hepatotoxicity; remark: listed apart in the source

Row | Structure (SMILES) | HepSE_bilirubinemia (Hepatotoxicity [1]) | HepSE_cholecystitis (Hepatotoxicity [2]) | HepSE_cholelithiasis (Hepatotoxicity [3]) | HepSE_cirrhosis (Hepatotoxicity [4]) | HepSE_elevated liver function tests (Hepatotoxicity [5]) | HepSE_hepatic failure (Hepatotoxicity [6]) | HepSE_hepatic necrosis (Hepatotoxicity [7]) | HepSE_hepatitis (Hepatotoxicity [8]) | HepSE_hepatomegaly (Hepatotoxicity [9]) | HepSE_jaundice (Hepatotoxicity [10]) | HepSE_liver disease (Hepatotoxicity [11]) | HepSE_liver fatty (Hepatotoxicity [12]) | HepSE_liver function tests abnormal (Hepatotoxicity [13]) | HepSE_Combined Scores (Hepatotoxicity [14]) | other results
1 | Cc1ccc(C(=O)c2ccc(CC(=O)O)n2C)cc1 [TOLMETIN] | 0 | 0 | 0 | 0 | 0 | 0 | 0 | 1 | 0 | 0 | 0 | 0 | 0 | 1 | –
2 | Cc1ccc(O)c([C@H](CCN(C(C)C)C(C)C)c2ccccc2)c1 [TOLTERODINE] | 0 | 0 | 0 | 0 | 0 | 0 | 0 | 0 | 0 | 0 | 0 | 0 | 0 | 0 | –
3 | CC1(C)O[C@@H]2[C@@H](CO[C@@]3(COS(N)(=O)=O)OC(C)(C)O[C@@H]23)O1 [TOPIRAMATE] | 0 | 0 | 0 | 0 | 0 | 1 | 0 | 1 | 0 | 0 | 0 | 0 | 0 | 2 | –
4 | CC[C@@]1(O)C(=O)OCc2c1cc1n(c2=O)Cc2cc3c(CN(C)C)c(O)ccc3nc2-1 [TOPOTECAN] | 1 | 0 | 0 | 0 | 0 | 0 | 0 | 0 | 0 | 0 | 0 | 0 | 0 | 1 | –
5 | CN(C)CCOc1ccc(/C(=C(/CCCl)c2ccccc2)c2ccccc2)cc1 [TOREMIFENE] | 0 | 0 | 0 | 0 | 0 | 0 | 0 | 0 | 0 | 1 | 0 | 0 | 1 | 2 | –
6 | Cc1cccc(Nc2ccncc2S(=O)(=O)NC(=O)NC(C)C)c1 [TORSEMIDE] | 0 | 0 | 0 | 1 | 0 | 1 | 0 | 0 | 0 | 0 | 0 | 0 | 0 | 2 | –
7 | COc1cccc(C2(O)CCCCC2CN(C)C)c1 (stereo not drawn) [TRAMADOL] | 0 | 1 | 1 | 0 | 0 | 1 | 0 | 1 | 0 | 0 | 0 | 0 | 1 | 5 | –
8 | CCOC(=O)[C@H](CCc1ccccc1)N[C@@H](C)C(=O)N1[C@H](C(=O)O)C[C@H]2CCCC[C@@H]21 [TRANDOLAPRIL] | 0 | 0 | 0 | 0 | 0 | 0 | 0 | 1 | 0 | 0 | 0 | 0 | 1 | 2 | –
9 | N[C@@H]1C[C@H]1c1ccccc1.N[C@H]1C[C@@H]1c1ccccc1 [TRANYLCYPROMINE] | – | – | – | – | – | – | – | – | – | – | – | – | – | – | HepSE_bilirubinemia (Hepatotoxicity [1]; Liver): 0; HepSE_cholecystitis (Hepatotoxicity [2]; Liver): 0; HepSE_cholelithiasis (Hepatotoxicity [3]; Liver): 0; HepSE_cirrhosis (Hepatotoxicity [4]; Liver): 0; HepSE_elevated liver function tests (Hepatotoxicity [5]; Liver): 0; HepSE_hepatic failure (Hepatotoxicity [6]; Liver): 0; HepSE_hepatic necrosis (Hepatotoxicity [7]; Liver): 0; HepSE_hepatitis (Hepatotoxicity [8]; Liver): 1; HepSE_hepatomegaly (Hepatotoxicity [9]; Liver): 0; HepSE_jaundice (Hepatotoxicity [10]; Liver): 0; HepSE_liver disease (Hepatotoxicity [11]; Liver): 0; HepSE_liver fatty (Hepatotoxicity [12]; Liver): 0; HepSE_liver function tests abnormal (Hepatotoxicity [13]; Liver): 0; HepSE_Combined Scores (Hepatotoxicity [14]; Liver): 1
10 | CC(C)OC(=O)CCC/C=C\C[C@@H]1[C@@H](/C=C/[C@@H](O)COc2cccc(C(F)(F)F)c2)[C@H](O)C[C@@H]1O [TRAVOPROST] | 0 | 0 | 0 | 0 | 0 | 0 | 0 | 0 | 0 | 0 | 0 | 0 | 0 | 0 | –
11 | O=c1n(CCCN2CCN(c3cccc(Cl)c3)CC2)nc2ccccn12 [TRAZODONE] | 1 | 0 | 0 | 0 | 0 | 0 | 0 | 0 | 0 | 1 | 0 | 0 | 0 | 2 | –
12 | CCCCC[C@H](O)CC[C@@H]1[C@H]2Cc3cccc(OCC(=O)O)c3C[C@H]2C[C@H]1O [TREPROSTINIL] | 0 | 0 | 0 | 0 | 0 | 0 | 0 | 0 | 0 | 0 | 0 | 0 | 0 | 0 | –
13 | CC1=C(/C=C/C(C)=C/C=C/C(C)=C/C(=O)O)C(C)(C)CCC1 [TRETINOIN] | 0 | 0 | 0 | 0 | 0 | 0 | 0 | 1 | 0 | 0 | 1 | 0 | 0 | 2 | –
14 | C[C@]12C=CC(=O)C=C1CC[C@H]1[C@@H]3C[C@@H](O)[C@](O)(C(=O)CO)[C@@]3(C)C[C@H](O)[C@@]12F [TRIAMCINOLONE] | 0 | 0 | 0 | 0 | 0 | 0 | 0 | 0 | 1 | 0 | 0 | 0 | 0 | 1 | –
15 | Cc1nnc2n1-c1ccc(Cl)cc1C(c1ccccc1Cl)=NC2 [TRIAZOLAM] | 0 | 0 | 0 | 0 | 0 | 1 | 0 | 0 | 0 | 1 | 0 | 0 | 0 | 2 | –
16 | CN1CCN(CCCN2c3ccccc3Sc3ccc(C(F)(F)F)cc32)CC1 [TRIFLUOPERAZINE] | 0 | 0 | 0 | 0 | 0 | 0 | 0 | 0 | 0 | 1 | 0 | 0 | 0 | 1 | –
17 | O=c1[nH]c(=O)n([C@H]2C[C@H](O)[C@@H](CO)O2)cc1C(F)(F)F [TRIFLURIDINE] | 0 | 0 | 0 | 0 | 0 | 0 | 0 | 0 | 0 | 0 | 0 | 0 | 0 | 0 | –
